Assay results: ChEMBL document CHEMBL4627363, “S1P1-selective agonist prodrug IMMH002 is phosphorylated in rats to form an S-configured enantiomer: Synthesis, verification, and biological activity of the in vivo active metabolite” (Bioorg Med Chem Lett, 2020)

What was measured:
[1] = target: Sphingosine 1-phosphate receptor 1 (Homo sapiens, UniProt P21453); test: Agonist activity at S1P1 (unknown origin) by HTRF assay
[2] = target: Sphingosine 1-phosphate receptor 3 (Homo sapiens, UniProt Q99500); test: Agonist activity at S1PR3 (unknown origin) by HTRF assay
Sequence of Sphingosine 1-phosphate receptor 3 (Q99500 whole entry): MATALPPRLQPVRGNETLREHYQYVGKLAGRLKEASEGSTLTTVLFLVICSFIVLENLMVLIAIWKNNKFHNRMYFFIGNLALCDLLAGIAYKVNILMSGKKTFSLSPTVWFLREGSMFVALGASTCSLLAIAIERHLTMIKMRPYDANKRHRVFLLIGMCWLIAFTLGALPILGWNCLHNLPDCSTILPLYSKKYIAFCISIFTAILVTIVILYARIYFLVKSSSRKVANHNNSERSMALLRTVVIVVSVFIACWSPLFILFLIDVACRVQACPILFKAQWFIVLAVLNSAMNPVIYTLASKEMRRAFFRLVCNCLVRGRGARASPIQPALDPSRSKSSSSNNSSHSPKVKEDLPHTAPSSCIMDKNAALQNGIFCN

[3] = species on record: Homo sapiens; test: Ratio of EC50 for S1PR3 (unknown origin) to EC50 for S1PR1 (unknown origin)

Sequence of Sphingosine 1-phosphate receptor 1 (P21453 whole entry): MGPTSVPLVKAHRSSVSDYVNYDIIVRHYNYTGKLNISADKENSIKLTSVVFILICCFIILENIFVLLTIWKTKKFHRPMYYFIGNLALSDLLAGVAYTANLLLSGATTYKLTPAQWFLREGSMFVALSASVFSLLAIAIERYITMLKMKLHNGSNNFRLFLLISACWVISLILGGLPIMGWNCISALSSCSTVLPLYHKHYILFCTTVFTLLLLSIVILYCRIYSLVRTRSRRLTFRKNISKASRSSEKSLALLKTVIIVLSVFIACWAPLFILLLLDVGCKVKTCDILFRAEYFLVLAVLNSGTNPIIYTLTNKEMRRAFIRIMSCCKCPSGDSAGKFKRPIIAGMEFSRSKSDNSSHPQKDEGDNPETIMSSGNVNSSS

EC50 [1] [nM]	EC50 [2] [nM]	Ratio EC50 [3]	SMILES
332	> 10000	–	CCc1nc(-c2ccc(-c3ccc(CCC(N)(CO)CO)cc3)cc2)co1
2.2	380	173	CCc1nc(-c2ccc(-c3ccc(CC[C@](N)(CO)COP(=O)(O)O)cc3)cc2)co1
469	736	1.6	CCc1nc(-c2ccc(-c3ccc(CC[C@@](N)(CO)COP(=O)(O)O)cc3)cc2)co1
5	523	105	CCc1nc(-c2ccc(-c3ccc(CCC(N)(CO)COP(=O)(O)O)cc3)cc2)co1 (racemic)
